Each structure is given as a SMILES string.

One series relates to P388/CPT. The experiment in a line: Chemosensitivity of camptothecin-resistant i.p. P388/CPT leukemia, increase in life span. In kind it is in vivo, mice. The following applies: for %ILS: P388/CPT, highest non-toxic dose. As to the method:
(§1) Cross-resistance was measured in murine leukemia cell lines.
(§2) ILS=100×[(median day of death (MDD) of treated mice)−(MDD control mice)]÷(MDD control mice)
(§3) Table III tabulates the results from this study.

A further series deals with Colon Adenocarcinoma C51. The experiment in a line: CPT-11, cisplatin and combination, three-arm study in mice bearing colon adenocarcinoma C51. The settings on record: for LCK / HNTD Dose: C51 sc; for T/C: tumor growth delay. As to the method: This efficacy may be quantified, for example, by the log10 cell kill, which is determined by the following formula: […]
An agent is considered to be active if log10 cell kill is greater than or equal to 0.7. An agent is considered to be very active if the log10 cell kill is greater than 2.8.
In the first arm, four dose levels of CPT-11 were given orally on days four through seven, twice daily. […] This third arm illustrated an example of semi-simultaneous administration.
The LD10 for the single agent was obtained by plotting the toxicity of that agent and the dosage in mg/kg as a log probit graph. Subsequently, the CTI LD10 was obtained by plotting as a log probit graph the observed lethality and the corresponding CTI calculated as the sum of the fraction of the LD10 of each single agent.

A short description of series [1]: Tolerance and maximum tolerated dose of oral vs i.v. irinotecan in tumor bearing mice. In kind it is in vivo. The following applies: all five tumor models, three mice strains. As to the method:
(§4) The effectiveness of irinotecan combination chemotherapy methods were tested in a dose response study in a murine tumor model. Three arms were evaluated for tolerance and efficacy. Tolerance was measured by mortality, body weight loss at nadir, host recovery time, and combination toxicity index. Efficacy end points for solid tumor models were tumor growth delay (T/C), log10 cell kill (LCK, defined above), tumor regressions (i.e., complete remission (CR), or partial remission (PR)). For non-solid tumors, such as leukemia, efficacy was measured as the increase in life span (ILS).

Series [2] has as its system Glasgow osteosarcoma (GOS). In words: CPT-11 i.v. with oxaliplatin i.v., GOS sc. The series is classed as in vivo, mice. Here is the method: as §4
In another series the test system is P388. In words: Chemosensitivity of P388 leukemia, increase in life span. In kind it is in vivo, mice. The following applies: P388, agent i.v., highest non-toxic dose. Here is the method:
as §1, §2, §3

In series [3] the test system is Glasgow osteosarcoma (GOS). In words: CPT-11 p.o. with oxaliplatin i.v., GOS sc. In kind it is in vivo, mice. The settings on record: days 4-8. As to the method:
as §4

Setting [4] is: CPT-11 p.o. 31.5 mg/kg/adm, days 4-7 twice/day.
Setting [5] is: CPT-11 p.o. 50.8 mg/kg/adm, days 4-7 twice/day.
Setting [6] is: Cisplatin i.v. 1.9 mg/kg/adm, days 4, 7.
Setting [7] is: Cisplatin i.v. 3.1 mg/kg/adm, days 4, 7.

For `CC[C@@]1(O)C(=O)OCc2c1cc1n(c2=O)Cc2cc3ccccc3nc2-1` [CPT, camptothecin], the “Comment (sensitivity of P388/CPT)” value in the series with P388/CPT (agent s.c.) is on record as “resistant”.
With `CCc1c2c(nc3ccc(OC(=O)N4CCC(N5CCCCC5)CC4)cc13)-c1cc3c(c(=O)n1C2)COC(=O)[C@]3(O)CC` [CPT-11, irinotecan], the LCK with Colon Adenocarcinoma C51 (CPT-11 p.o. alone at HNTD, days 4-7, twice daily) amounted to 1.1. Besides, the “HNTD Dose” value in the series with Colon Adenocarcinoma C51 (CPT-11 p.o. alone, days 4-7, twice daily) was determined as 406 mg/kg. In the series on Colon Adenocarcinoma C51 (setting [4]), the Comments entry is reported as “Marginal Activity”, the Log10 cell kill came to 0.7, the “Time for Median tumor to reach 1000 mg” value came to 25.5 days and the “T/C” value is 6.0 days. Also, in the series with Colon Adenocarcinoma C51 (setting [5]), the “Time for Median tumor to reach 1000 mg” value amounted to 29.4 days and the “T/C” value was found to be 9.9 days. In addition, the “efficacy in tumor bearing mice, oral vs i.v. administration” value in series [1] was “similar”. Moreover, the “Comment (sensitivity of P388/CPT)” value in the series on P388/CPT (agent i.v.) is reported as “resistant”. In addition, in series [2] (CPT-11 i.v. alone, days 3, 5, 7 twice daily), the “HNTD Dose” value amounted to 349.8 mg/kg.
Take `N.N.[Cl][Pt][Cl]` [Cisplatin, cis-diaminedichloroplatinum]: the LCK in the series on Colon Adenocarcinoma C51 (cisplatin i.v. alone at HNTD, days 4, 7) was 3.3. Besides, the “HNTD Dose” value in the series with Colon Adenocarcinoma C51 (cisplatin i.v. alone, days 4, 7) came to 6.2 mg/kg. Further, in the series with Colon Adenocarcinoma C51 (setting [6]), the Log10 cell kill stood at 1.3, the “Time for Median tumor to reach 1000 mg” value is listed as 30.8 days and the “T/C” value is reported as 11.3 days. Also, in the series with Colon Adenocarcinoma C51 (setting [7]), the Log10 cell kill was found to be 3.3, the “Time for Median tumor to reach 1000 mg” value is given as 48.1 days and the “T/C” value turned out to be 28.6 days. Besides, the “%ILS” value in the series on P388 is 73%. For the same compound, in the series with P388/CPT (agent i.v.), the “%ILS” value came to 153% and the “Comment (sensitivity of P388/CPT)” value is on record as “sensitive”.
Consider `O=C1[O][Pt]2([NH][C@@H]3CCCC[C@H]3[NH]2)[O]C1=O` [Oxaliplatin, oxaliplatin], for which the “%ILS” value in the series with P388 was found to be 0%; in the series on P388/CPT (agent i.v.), 86%. For the same compound, the “Comment (sensitivity of P388/CPT)” value in the series with P388/CPT (agent i.v.) is “sensitive”. Moreover, the LCK was 2.3 in series [2] (oxaliplatin i.v. alone at HNTD, days 3, 5, 7) and 2.0 in series [3] (oxaliplatin i.v. alone at HNTD). For the same compound, the “HNTD Dose” value in series [2] (oxaliplatin i.v. alone, days 3, 5, 7) was 10.2 mg/kg; in series [3] (oxaliplatin i.v. alone), 16.0 mg/kg.
